Here are results for two molecules from PMC5762859, “Distribution analysis of epertinib in brain metastasis of HER2-positive breast cancer by imaging mass spectrometry and prospect for antitumor activity” (Scientific Reports, 2018).

The target of data set [1] is T1, breast cancer resistance protein (BCRP) (Homo sapiens, UniProt Q9UNQ0).
T1 construct: permeability and efflux ratio of epertinib across Caco-2 cell monolayers; endogenous in cells; host or cells: Caco-2
T1 sequence (Q9UNQ0 1-655): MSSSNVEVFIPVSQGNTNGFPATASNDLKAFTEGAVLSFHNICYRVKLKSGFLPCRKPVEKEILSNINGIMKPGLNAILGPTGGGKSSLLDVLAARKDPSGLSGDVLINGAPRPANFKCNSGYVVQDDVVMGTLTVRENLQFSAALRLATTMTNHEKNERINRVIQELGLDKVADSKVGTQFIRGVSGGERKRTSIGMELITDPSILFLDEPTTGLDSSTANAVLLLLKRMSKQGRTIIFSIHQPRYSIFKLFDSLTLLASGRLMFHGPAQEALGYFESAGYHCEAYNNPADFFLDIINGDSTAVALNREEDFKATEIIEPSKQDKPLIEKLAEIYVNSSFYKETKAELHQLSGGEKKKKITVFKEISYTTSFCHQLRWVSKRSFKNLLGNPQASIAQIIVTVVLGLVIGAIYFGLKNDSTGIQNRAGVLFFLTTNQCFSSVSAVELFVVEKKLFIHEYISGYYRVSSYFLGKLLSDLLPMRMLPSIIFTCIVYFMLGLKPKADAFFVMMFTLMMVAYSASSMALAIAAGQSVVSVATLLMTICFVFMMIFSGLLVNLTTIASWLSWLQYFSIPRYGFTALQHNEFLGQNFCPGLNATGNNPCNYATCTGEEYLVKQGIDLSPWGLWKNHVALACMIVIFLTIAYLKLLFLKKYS
Particulars: cited from earlier work.

Data set [2] has as its system HER2-positive metastatic breast cancer patients. Conditions: historical data, combination with trastzumab; cited from earlier work.
Data set [3] deals with EGFR. Also on record: method as in PMID 24837299. Particulars: cited from earlier work.
Data set [4] in a line: Plasma radioactivity and epertinib after single oral [14C]-epertinib hydrochloride in rats. The format is in vivo. An excerpt:
We used quantitative IMS to analyze and compare the distribution of epertinib and lapatinib in brain metastasis. IMS can simultaneously detect diverse molecules and obtain spatial distribution information capable of distinguishing between a drug and its metabolites in tissue sections[21],[35]. Historically, drug metabolism and pharmacokinetic studies have used radiolabels to perform autoradiography and obtain information about tissue distribution. Previously, plasma concentrations of radioactivity and epertinib were determined after a single oral administration of [^14C]-epertinib hydrochloride at a dose of 5 mg/kg (as epertinib) in rats (Supplementary Fig. S3). […] The AUC0–12 h and AUCinf values were 126 ± 18 and 392 ± 316 ng·h/mL, respectively. The plasma epertinib/radioactivity concentration ratio ranged from 10.9% to 16.2% through the measurable points, and the AUCinf ratio was ~20.8 ± 15.0%.
Supplementa ry Figure S3. Concentration of radioactivity and epertinib in plasma after single oral administration of [14C]-epertinib hydrochloride to non-f as ti ng male rats (dose: 5 mg as epertinib /kg)
Data ar e ex pressed as the mean values + SD o f fou r animals.
(1 picture or pasted object on this page, not shown here)

The test system of data set [5] is MDA-MB-361-luc-BR2. Kind of data set: Mammary fat pad implantation model, antitumor activity. The format is in vivo, mice. Conditions: Mus musculus, 672 h; BR2 in mammary fat pad, oral daily for 28 days. The text has this: (§1) We evaluated the inhibitory activity of epertinib on the in vitro growth of the parental cell line, MDA-MB-361. […] To compare the growth inhibitory activity of epertinib on the parental and metastatic (BR2) cell lines, we evaluated the antitumor activity of epertinib in both cell lines. […] To confirm the antitumor activity of epertinib in the IVM, we examined the effect of epertinib on the IVM transplanted BR2.
(§2) Figure 6 In vivo antitumor activity of epertinib in the breast cancer IVM. Epertinib inhibits the growth of breast cancer in animal models. In each animal model, vehicle or indicated doses of epertinib were orally administered daily. Tumor volume was measured twice or thrice weekly and the mean tumor volume with SD is represented by each data point. Human breast cancer cells, MDA-MB-361 (A) or MDA-MB-361-luc-BR2 (B) was implanted orthotopically into the mammary fat pad of mice. Tumor-bearing mice were treated for 28 days (A and B). Tumor growth in the breast cancer IVM ([…]) was monitored by the photons emitted from the tumor as an indicator, which was measured with an IVIS Imaging System 200 (Caliper Life Sciences). […] The photons were measured once or twice weekly and the mean photons/sec with SD are presented at each data point (n = 3 for vehicle, n = 4 for 50 mg/kg of epertinib) (C). […]

Data set [6] relates to MDA-MB-361. The data set is described as above. The format is in vivo, mice. Conditions: Mus musculus, 672 h; MDA-MB-361 in mammary fat pad, oral daily for 28 days.
Description: as §1, §2

For data set [7], the system named is HER2. More on the design: method as in PMID 24837299. Conditions: cited from earlier work.
The subject of data set [8] is patients with solid tumors. More on the design: method as in PMID 25434923, PMID 25434923, PMID 25434923. Particulars: phase I trials; cited from earlier work.
Data set [9] concerns HER2-positive metastatic breast cancer patients. Also on record: method as in earlier work. Conditions: cited from earlier work; for Objective response rate (ORR): heavily pretreated HER2-positive metastatic breast cancer.
Data set [10] addresses T1, breast cancer resistance protein (BCRP). Kind of data set: BCRP substrate assessment. The format is in vitro ADME. Particulars: from permeability and efflux ratio across Caco-2 cell monolayers.
The target of data set [11] is T2, P-glycoprotein (P-gp) (Homo sapiens, UniProt P08183).
T2 construct: permeability and efflux ratio of epertinib across Caco-2 cell monolayers; endogenous in cells; host or cells: Caco-2
Kind of data set: P-gp substrate assessment. The format is in vitro ADME. Conditions: from permeability and efflux ratio across Caco-2 cell monolayers. Background: Caco-2 monolayers are a common model of the intestinal barrier.

Like-named read-outs stand apart in the source and are kept apart here.

T2 sequence (P08183 whole entry): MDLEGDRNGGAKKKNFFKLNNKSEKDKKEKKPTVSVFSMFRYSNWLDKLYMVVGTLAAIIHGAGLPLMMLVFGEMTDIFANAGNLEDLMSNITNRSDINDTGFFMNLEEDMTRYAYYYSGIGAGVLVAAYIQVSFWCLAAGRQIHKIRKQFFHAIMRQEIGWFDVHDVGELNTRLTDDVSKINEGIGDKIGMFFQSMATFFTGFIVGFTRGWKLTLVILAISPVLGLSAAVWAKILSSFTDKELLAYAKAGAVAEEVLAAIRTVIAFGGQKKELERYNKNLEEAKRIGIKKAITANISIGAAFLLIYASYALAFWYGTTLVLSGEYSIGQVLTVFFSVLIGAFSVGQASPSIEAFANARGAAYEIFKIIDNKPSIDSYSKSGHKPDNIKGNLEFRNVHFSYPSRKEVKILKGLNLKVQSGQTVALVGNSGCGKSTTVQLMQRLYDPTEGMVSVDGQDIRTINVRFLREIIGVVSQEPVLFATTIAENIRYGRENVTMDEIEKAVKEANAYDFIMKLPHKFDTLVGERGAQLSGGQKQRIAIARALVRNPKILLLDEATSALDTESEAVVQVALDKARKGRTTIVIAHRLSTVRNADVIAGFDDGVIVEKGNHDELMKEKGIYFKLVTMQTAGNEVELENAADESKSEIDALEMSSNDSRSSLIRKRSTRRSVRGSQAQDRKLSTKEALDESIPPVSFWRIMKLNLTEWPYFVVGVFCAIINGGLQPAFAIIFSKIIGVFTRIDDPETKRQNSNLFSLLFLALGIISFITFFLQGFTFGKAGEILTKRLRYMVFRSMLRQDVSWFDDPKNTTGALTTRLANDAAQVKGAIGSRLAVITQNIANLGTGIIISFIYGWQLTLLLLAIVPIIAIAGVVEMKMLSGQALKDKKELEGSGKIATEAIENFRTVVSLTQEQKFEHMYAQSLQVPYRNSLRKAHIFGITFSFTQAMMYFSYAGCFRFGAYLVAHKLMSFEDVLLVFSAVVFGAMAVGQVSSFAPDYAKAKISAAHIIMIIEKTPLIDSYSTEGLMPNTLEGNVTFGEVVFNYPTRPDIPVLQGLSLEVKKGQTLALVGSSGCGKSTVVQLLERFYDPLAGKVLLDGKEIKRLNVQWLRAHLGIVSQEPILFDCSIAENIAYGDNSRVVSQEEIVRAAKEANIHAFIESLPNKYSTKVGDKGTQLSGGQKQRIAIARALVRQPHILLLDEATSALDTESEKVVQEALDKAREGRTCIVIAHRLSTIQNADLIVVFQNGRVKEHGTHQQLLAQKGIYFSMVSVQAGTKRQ

Consider `CS(=O)(=O)CCNCc1ccc(-c2ccc3ncnc(Nc4ccc(OCc5cccc(F)c5)c(Cl)c4)c3c2)o1` [Lapatinib, N-{3-chloro-4-[(3-fluorobenzyl)oxy]phenyl}-6-[5-({[2-(methylsulfonyl)ethyl]amino}methyl)-2-furyl]-4-quinazolinamine, reference compound], for which the BCRP substrate entry in data set [1] was “substrates”. Further, the “Objective response rate (ORR)” value in [2] is recorded as 10.3%.
Regarding `CC#CC(=NOCC1COCCN1)c1ccc2ncnc(Nc3ccc(OCc4cccc(F)c4)c(Cl)c3)c2c1` (stereo not drawn) [Epertinib], the “Off-rate of dissociation compared with lapatinib” value in data set [3] and in data set [7] was “slower off-rate of dissociation” throughout. The “Epertinib/radioactivity AUCinf ratio” value in [4] is recorded as ~ 20.8 ± 15.0%. The AUC(0-t) in [4] (male, rat, plasma, single oral 5 mg/kg [14C]-epertinib hydrochloride, read-out: AUC0–12 h of epertinib) is 0.126 ± 0.018 µg·h/mL. The AUC(0-inf) in data set [4] (male, rat, plasma, single oral 5 mg/kg [14C]-epertinib hydrochloride, read-out: AUCinf of epertinib) was 0.392 ± 0.316 µg·h/mL. In addition, in data set [4] (male, rat, plasma, single oral 5 mg/kg [14C]-epertinib hydrochloride, read-out: Plasma concentration of epertinib, Cmax), the Cmax was determined as 0.0141 ± 0.0036 µg/mL. In [4] (single oral 5 mg/kg [14C]-epertinib hydrochloride), the “Time of Cmax of plasma epertinib” value was found to be 5.00 ± 1.15 h. Also, the values for the ED50 in data set [5] and in data set [6] were 26.5 mg/kg and 24.1 mg/kg, respectively. Besides, the Tolerability result in data set [8] was “well tolerated”. Further, the “Tumor reduction (partial response), brain metastases as the target lesion” value in data set [9] (all the participants in a clinical trial) is listed as “two of 45”. Moreover, the “Objective response rate (ORR)” value in data set [9] (in combination with trastuzumab and capecitabine) is listed as 56%; in [9] (in combination with trastuzumab), 67%. Also, the “Tumor response (patients)” value in [9] (in combination with trastuzumab, patients previously treated with lapatinib plus capecitabine or ado-trastuzumab emtansine) is “seven of 21”. The BCRP substrate entry in [10] is on record as “not a substrate”. Besides, the P-gp substrate result in [11] is reported as “not a substrate”.

In general, ED50 refers to the dose that gives a 50% effect, or the effect in half of the subjects.
